Measured values as given in publication PMC6768889 (Cancer Chemotherapy and Pharmacology, 2019).
“And” between values parts separate entries of the source, which are not always exact repeats. Identical values can stand only once. Counter-ions that a name gives are not always drawn. Like-named read-outs stand apart in the source and are kept apart here. Each block holds one molecule with its values, some of them ahead of it.

Tests used:
gastric acid secretion = tested on: gastric acid secretion; design: method as in earlier work; conditions: cited from earlier work
[1] = Safety: treatment-emergent adverse events, vital signs and laboratory tests in the phase 1 study; type: in vivo, human
Method: The safety analysis population consisted of all randomized subjects who received quizartinib or at least one dose of lansoprazole. Safety was assessed with physical examinations, vital signs, AE evaluations, 12-lead electrocardiograms (ECGs), and clinical laboratory tests (hematology, chemistry, and urinalysis). AEs were evaluated during the study according to the Medical Dictionary for Regulatory Activities version 17.1 and assessed for severity and relation to study drugs. Laboratory results were summarized based on National Cancer Institute Common Terminology Criteria for Adverse Events version 4.03.

[2] = Phase 1 drug–drug interaction study: plasma PK of quizartinib, AC886 and quizartinib + AC886 after a single 30-mg quizartinib tablet alone or with lansoprazole; type: in vivo, human; conditions: for Vd/F: read-out: Vz/F (CV%), geometric mean; for CL/F (CV%), geometric mean: quizartinib
Method: The tolerability and safety of quizartinib administered alone and in combination with lansoprazole were also assessed. The study was conducted in compliance with the Declaration of Helsinki and the International Conference on Harmonisation (ICH)/Good Clinical Practice as well as all applicable state, local, and federal regulations. The study protocol, amendments, and informed consent forms were reviewed and approved by the institutional review board. All subjects provided written informed consent before any study-related procedure took place.
Subjects were randomized into two groups: lansoprazole and quizartinib (lansoprazole + quizartinib; test group) and quizartinib alone (reference group). On days 1–5, subjects in the test group were administered 60-mg lansoprazole (2 × 30 mg oral delayed-released capsule) once daily in the morning before food. […] All study drugs were taken with approximately 240 mL of water.
Plasma concentrations were determined by BASi (West Lafayette, IN, USA) using a validated analytical method.
Samples were injected into an LC–MS/MS system (LC: Nexera System, Shimadzu Scientific Instruments, Columbia, MD, USA; MS: API 5500™, SCIEX, Framingham, MA, USA) using a PFP column (Phenomenex/Kinetex, Torrance, CA, USA) with a gradient ammonium formate/formic acid/acetonitrile/water mobile phase. […] For AC886 at the LLOQ, precision was 6.0% CV and accuracy was 0.2% bias across 14 runs; accuracy ranged from −7.9 to 10.6% bias within runs. For AC886 at the upper limit of quantitation, precision was 2.9% CV and accuracy was −1.4% bias across 14 runs; accuracy ranged from −6.4 to 4.6% bias within runs.
A sample size of 25 subjects per group was determined to yield a ≤ 10% relative standard error of the mean, based on the observed intersubject coefficient of variation (CV%) of approximately 60% for PK parameters in a previous drug–drug interaction study in healthy volunteers (data on file, Daiichi Sankyo, Inc., Basking Ridge, NJ, USA). Up to 32 subjects/group were planned to account for possible premature withdrawal. Descriptive statistics were used to summarize plasma concentrations and PK parameters of the PK analysis population. Safety parameters were summarized in the safety analysis population using descriptive statistics. All descriptive statistics were calculated using SAS® software version 9.3 (SAS Institute Inc., Cary, NC, USA). […] PK parameters were natural logarithm (ln)-transformed prior to analyses. The ln-transformed PK results were back-transformed by exponentiation to obtain the geometric least squares mean (LSM) for each treatment and calculate geometric LSM ratios for pairwise comparisons.

[3] = cited from earlier work
[4] = by treatment group
[5] = In vitro solubility assessment; type: physicochemical
[6] = all patients, quizartinib with/without lansoprazole, N = 63
[7] = all subjects, quizartinib with or without lansoprazole
[8] = by treatment group, safety population
[9] = healthy subjects, single 30-mg quizartinib
[10] = quizartinib in plasma, single 30-mg quizartinib alone, n = 30
[11] = day 5, up to 8 h after quizartinib

Compound: Cc1c(OCC(F)(F)F)ccnc1C[S+]([O-])c1nc2ccccc2[nH]1 (centres unmarked) [Lansoprazole, lansoprazole]
- Duration of inhibitory effect on gastric acid secretion (gastric acid secretion): over 24 h
- Elimination half-life (gastric acid secretion): less than 2 h
- Mean 24-h intragastric pH (gastric acid secretion; lansoprazole 30 mg once daily for 5 days, baseline 2.1): 4.9

- Decrease in AUCinf (geometric LSM) for lansoprazole + quizartinib versus quizartinib alone [2, 9]: 4.7%
- Decrease in AUClast (geometric LSM) for lansoprazole + quizartinib versus quizartinib alone [2, 9]: 6.0%
- Decrease in Cmax (geometric LSM) for lansoprazole + quizartinib versus quizartinib alone [2, 9]: 13.9%
- AUC(0-inf) ([2]; human, plasma, oral, 30 mg, quizartinib in plasma, quizartinib alone, n = 30, read-out: AUCinf, geometric LS mean (ANOVA)): 8660 ng·h/mL
- AUC(0-t) ([2]; human, plasma, oral, 30 mg, quizartinib in plasma, quizartinib alone, n = 30, read-out: AUClast, geometric LS mean (ANOVA)): 8330 ng·h/mL
- AUC(0-inf) ([2]; human, plasma, oral, 30 mg, quizartinib in plasma, single 30-mg quizartinib alone, n = 30, read-out: AUCinf (CV%), geometric mean): 8660 ng·h/mL
- AUC(0-t) ([2]; human, plasma, oral, 30 mg, quizartinib in plasma, single 30-mg quizartinib alone, n = 30, read-out: AUClast (CV%), geometric mean): 8330 ng·h/mL
- Vd/F ([2]; human, plasma, oral, 30 mg): 431 L
- AUC(0-inf) ([2]; human, plasma, oral, quizartinib in plasma, lansoprazole 60 mg once daily + single 30-mg quizartinib, n = 31, read-out: AUCinf (CV%), geometric mean): 8260 ng·h/mL
- AUC(0-t) ([2]; human, plasma, oral, quizartinib in plasma, lansoprazole 60 mg once daily + single 30-mg quizartinib, n = 32, read-out: AUClast (CV%), geometric mean): 7830 ng·h/mL
- AUC(0-inf) ([2]; human, plasma, oral, quizartinib in plasma, lansoprazole + quizartinib, n = 31, read-out: AUCinf, geometric LS mean (ANOVA)): 8260 ng·h/mL
- AUC(0-t) ([2]; human, plasma, oral, quizartinib in plasma, lansoprazole + quizartinib, n = 32, read-out: AUClast, geometric LS mean (ANOVA)): 7830 ng·h/mL
- half-life ([2]; human, plasma, oral, read-out: Mean T1/2 (SD), arithmetic mean (converted)): 107 h
- Tmax ([2]; human, plasma, oral, read-out: Median Tmax (min, max)): 3.5 h
- Vd/F ([2]; human, plasma, oral): 479 L
- Median Tmax (min, max) ([2]; quizartinib in plasma, healthy subjects, single 30-mg quizartinib tablet alone, fasted, n = 30): 4.0 (2.0, 8.0) h
- Cmax, geometric LS mean (ANOVA) ([2]; quizartinib in plasma, quizartinib alone, n = 30): 104.8 ng/mL
- Cmax (CV%), geometric mean [2, 10]: 105 (16.3) ng/mL
- Mean T1/2 (SD), arithmetic mean [2, 10]: 102.2 (29.0) h
- CL/F (CV%), geometric mean ([2]; lansoprazole 60 mg once daily + single 30-mg quizartinib, n = 31): 3.2 L/h and 3.2 (46.4)^b L/h
- CL/F (CV%), geometric mean ([2]; single 30-mg quizartinib alone, n = 30): 3.1 L/h and 3.1 (37.4) L/h
Compound: CC(C)(C)c1cc(NC(=O)Nc2ccc(-c3cn4c(n3)sc3cc(OCCN5CCOCC5)ccc34)cc2)no1 [Quizartinib, quizartinib]
- TEAE: Back pain [1, 6]: 2 (3.2) n (%)
- TEAE: Constipation [1, 6]: 2 (3.2) n (%)
- TEAE: Dermatitis [1, 6]: 1 (1.6) n (%)
- TEAE: Diarrhea [1, 6]: 1 (1.6) n (%)
- TEAE: Dizziness [1, 6]: 1 (1.6) n (%)
- TEAE: Fatigue [1, 6]: 2 (3.2) n (%)
- TEAE: Headache [1, 6]: 3 (4.8) n (%)
- TEAE: Hypoacusis [1, 6]: 1 (1.6) n (%)
- TEAE: Hypoesthesia [1, 6]: 1 (1.6) n (%)
- TEAE: Muscle tightness [1, 6]: 2 (3.2) n (%)
- TEAE: Musculoskeletal pain [1, 6]: 1 (1.6) n (%)
- TEAE: Musculoskeletal stiffness [1, 6]: 1 (1.6) n (%)
- TEAE: Nasal congestion [1, 6]: 1 (1.6) n (%)
- TEAE: Nausea [1, 6]: 2 (3.2) n (%)
- TEAE: Phlebotomy [1, 6]: 1 (1.6) n (%)
- TEAE: Sneezing [1, 6]: 1 (1.6) n (%)
- TEAE: Throat irritation [1, 6]: 1 (1.6) n (%)
- TEAE: Upper respiratory tract infection [1, 6]: 5 (7.9) n (%)
- TEAE: Vessel puncture site pain [1, 6]: 1 (1.6) n (%)
- Abnormalities in vital signs, hematology, or clinical chemistry [1, 7]: No significant abnormalities
- Severe or serious TEAEs [1, 7]: no severe or serious TEAEs
- Subjects with TEAEs of mild severity among the 20 subjects who experienced a TEAE [1, 7]: 95%
- Subjects with at least one quizartinib-related TEAE (nausea, diarrhea, dizziness, headache, fatigue) [1, 7]: Three
- Subjects with at least one treatment-emergent AE (TEAE) following quizartinib treatment on day 5 ([1]; all subjects, quizartinib with or without lansoprazole, N = 63): 31.7%
- TEAE: Back pain [1, 8]: 1 (3.3) n (%)
- TEAE: Constipation [1, 8]: 1 (3.3) n (%)
- TEAE: Dermatitis [1, 8]: 0 n (%)
- TEAE: Diarrhea [1, 8]: 1 (3.3) n (%)
- TEAE: Dizziness [1, 8]: 0 n (%)
- TEAE: Fatigue [1, 8]: 1 (3.3) n (%)
- TEAE: Headache [1, 8]: 3 (10.0) n (%)
- TEAE: Hypoacusis [1, 8]: 0 n (%)
- TEAE: Hypoesthesia [1, 8]: 0 n (%)
- TEAE: Muscle tightness [1, 8]: 2 (6.7) n (%)
- TEAE: Musculoskeletal pain [1, 8]: 1 (3.3) n (%)
- TEAE: Musculoskeletal stiffness [1, 8]: 1 (3.3) n (%)
- TEAE: Nasal congestion [1, 8]: 1 (3.3) n (%)
- TEAE: Nausea [1, 8]: 1 (3.3) n (%)
- TEAE: Phlebotomy [1, 8]: 0 n (%)
- TEAE: Sneezing [1, 8]: 1 (3.3) n (%)
- TEAE: Throat irritation [1, 8]: 1 (3.3) n (%)
- TEAE: Upper respiratory tract infection [1, 8]: 2 (6.7) n (%)
- TEAE: Vessel puncture site pain [1, 8]: 0 n (%)
- TEAE: Dysmenorrhea ([1]; by treatment group, safety population, after database lock one event was found to be pre-existing): 1 (3.3) n (%)
- Subjects with at least one treatment-emergent AE (TEAE) following quizartinib treatment on day 5 ([1]; by treatment group, quizartinib alone n = 30, lansoprazole + quizartinib n = 33): 30.0%
- Overall safety and tolerability ([1]; healthy subjects, with or without lansoprazole): generally safe and well tolerated
- half-life ([3]; estimated in AML patients, ref data on file, Daiichi Sankyo Inc., Basking Ridge, NJ, USA): 73 h
- Time to maximum concentrations ([3]; healthy subjects and patients with AML, range 2–8 h): 4 h
- Subjects with maximum QTcF value > 480 ms [4]: None
- Maximum QTcF change from baseline in most subjects [4, 11]: ≤ 30 ms
- Maximum QTcF value in most subjects [4, 11]: ≤ 450 ms

- pH dependence of solubility [5]: pH dependent
- solubility ([5]; at physiological pH in the intestine): < 0.4 µg/mL
Compound: CC(C)(C)c1cc(NC(=O)Nc2ccc(-c3cn4c(n3)sc3cc(OCCN5CCOCC5)ccc34)cc2)no1 [quizartinib dihydrochloride]
